Experimental data as given in PMC9158266, “Ethacrynic acid is an inhibitor of human factor XIIIa” (BMC Pharmacology & Toxicology, 2022).

Molecular target: T1, human factor XIIIa (FXIIIa) (Homo sapiens, UniProt P00488)
T1 construct: gene F13A1
T1 sequence (P00488 39-732): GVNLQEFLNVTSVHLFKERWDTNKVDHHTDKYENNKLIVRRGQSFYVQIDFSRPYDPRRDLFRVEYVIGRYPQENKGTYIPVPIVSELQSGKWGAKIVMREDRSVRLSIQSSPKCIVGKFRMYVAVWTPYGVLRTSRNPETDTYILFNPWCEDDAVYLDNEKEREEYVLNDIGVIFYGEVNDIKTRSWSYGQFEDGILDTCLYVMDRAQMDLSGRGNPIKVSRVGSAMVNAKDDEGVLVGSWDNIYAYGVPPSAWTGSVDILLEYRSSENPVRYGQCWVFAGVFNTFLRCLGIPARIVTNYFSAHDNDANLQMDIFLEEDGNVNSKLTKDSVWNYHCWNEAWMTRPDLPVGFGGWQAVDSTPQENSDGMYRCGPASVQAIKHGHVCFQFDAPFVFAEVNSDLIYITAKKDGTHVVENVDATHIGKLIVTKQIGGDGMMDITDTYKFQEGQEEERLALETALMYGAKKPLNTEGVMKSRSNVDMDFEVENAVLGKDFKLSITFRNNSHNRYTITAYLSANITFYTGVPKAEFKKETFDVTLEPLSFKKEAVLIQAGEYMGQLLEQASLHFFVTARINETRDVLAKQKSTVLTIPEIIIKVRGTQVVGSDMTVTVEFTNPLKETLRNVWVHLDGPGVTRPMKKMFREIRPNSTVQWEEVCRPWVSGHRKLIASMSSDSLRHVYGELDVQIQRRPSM
Experiment: bisubstrate fluorescence trans-glutamination assay (dansylcadaverine / N,N-dimethylcasein)
Assay type: biochemical

SMILES: C=C(CC)C(=O)c1ccc(OCC(=O)O)c(Cl)c1Cl [compound 1, Ethacrynic acid]
- IC50: 106 ± 32.5 µM
